What all share (type): cell-based
For test [1], the target named is T1, human GPR119 (Homo sapiens, UniProt Q8TDV5).
T1 sequence (Q8TDV5 1-335): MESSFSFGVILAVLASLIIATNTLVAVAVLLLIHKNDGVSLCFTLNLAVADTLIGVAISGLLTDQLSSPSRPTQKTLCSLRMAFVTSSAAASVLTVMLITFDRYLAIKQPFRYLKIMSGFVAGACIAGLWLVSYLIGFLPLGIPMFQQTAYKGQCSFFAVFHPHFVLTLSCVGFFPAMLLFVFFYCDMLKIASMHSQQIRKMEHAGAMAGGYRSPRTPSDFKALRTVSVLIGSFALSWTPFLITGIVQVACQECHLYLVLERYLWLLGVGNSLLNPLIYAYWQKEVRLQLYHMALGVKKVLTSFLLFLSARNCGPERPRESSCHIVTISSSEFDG
The test is described as follows: β-Lactamase reporter functional assay (hGPR119 HEK293-CRE beta-lactamase cells). Set-up: host or cells: HEK293-CRE beta-lactamase; Emax: dose or concentration left out as unconfirmed. Particulars: for EC50: hGPR119 HEK293-CRE beta-lactamase cells, 16 h incubation, each line a separate determination, read-out: Human B-lactamase Functional EC50; for Intrinsic Activity (Human B-lactamase) / Emax: percent of maximal activity relative to standard GPR119 agonist at 10 micromolar; for Emax: read-out: Intrinsic Activity (Human B-lactamase). As for the experimental part: The assay for GPR119 agonists utilizes a cell-based (hGPR119 HEK293-CRE beta-lactamase) reporter construct where agonist activation of human GPR119 is coupled to beta-lactamase production via a cyclic AMP response element (CRE). GPR119 activity is then measured utilizing a FRET-enabled beta-lactamase substrate, CCF4-AM (Live Blazer FRET-B/G Loading kit, Invitrogen cat #K1027). Specifically, hGPR119-HEK-CRE-beta-lactamase cells (Invitrogen 2.5×10^7/mL) were removed from liquid nitrogen storage, and diluted in plating medium (Dulbecco's modified Eagle medium high glucose (DMEM; Gibco Cat # 11995-065), 10% heat inactivated fetal bovine serum (HIFBS; Sigma Cat # F4135), 1×MEM Nonessential amino acids (Gibco Cat # 15630-080), 25 mM HEPES pH 7.0 (Gibco Cat # 15630-080), 200 nM potassium clavulanate (Sigma Cat # P3494). The cell concentration was adjusted using cell plating medium and 50 microL of this cell suspension ([…]) was added into each well of a black, clear bottom, poly-d-lysine coated 384-well plate (Greiner Bio-One cat# 781946) and incubated at 37 degrees Celsius in a humidified environment containing 5% carbon dioxide. After 4 hours the plating medium was removed and replaced with 40 microL of assay medium (Assay medium is plating medium without potassium clavulanate and HIFBS). Varying concentrations of each compound to be tested was then added in a volume of 10 microL (final DMSO ≦0.5%) and the cells were incubated for 16 hours at 37 degrees Celsius in a humidified environment containing 5% carbon dioxide. Plates were removed from the incubator and allowed to equilibrate to room temperature for approximately 15 minutes. 10 microL of 6×CCF4/AM working dye solution (prepared according to instructions in the Live Blazer FRET-B/G Loading kit, Invitrogen cat #K1027) was added per well and incubated at room temperature for 2 hours in the dark. Fluorescence was measured on an EnVision fluorimetric plate reader, excitation 405 nm, emission 460 nm/535 nm. EC50 determinations were made from agonist-response curves analyzed with a curve fitting program using a 4-parameter logistic dose-response equation.

Test [2] concerns the target T1, human GPR119. The test is described as follows: cAMP HTRF functional assay (hGPR119 HEK-CRE beta-lactamase cells). The arrangement: host or cells: HEK293-CRE beta-lactamase. To be noted: for EC50: HTRF cAMP, 30 min, 400 microM IBMX, each line a separate determination; for Emax: read-out: Intrinsic Activity (Human cAMP). As for the experimental part: GPR119 agonist activity was also determined with a cell-based assay utilizing an HTRF (Homogeneous Time-Resolved Fluorescence) cAMP detection kit (cAMP dynamic 2 Assay Kit; Cis Bio cat #62AM4PEC) that measures cAMP levels in the cell. The method is a competitive immunoassay between native cAMP produced by the cells and the cAMP labeled with the dye d2. The tracer binding is visualized by a Mab anti-cAMP labeled with Cryptate. The specific signal (i.e. energy transfer) is inversely proportional to the concentration of cAMP in either standard or sample.
Specifically, hGPR119 HEK-CRE beta-lactamase cells (Invitrogen 2.5×10^7/mL; the same cell line used in the beta-lactamase assay described above) are removed from cryopreservation and diluted in growth medium (Dulbecco's modified Eagle medium high glucose (DMEM; Gibco Cat # 11995-065), 1% charcoal dextran treated fetal bovine serum (CD serum; HyClone Cat # SH30068.03), 1×MEM Nonessential amino acids (Gibco Cat # 15630-080) and 25 mM HEPES pH 7.0 (Gibco Cat # 15630-080)). The cell concentration was adjusted to 1.5×10^5 cells/mL and 30 mLs of this suspension was added to a T-175 flask and incubated at 37 degrees Celsius in a humidified environment in 5% carbon dioxide. After 16 hours (overnight), the cells were removed from the T-175 flask (by rapping the side of the flask), centrifuged at 800×g and then re-suspended in assay medium (1×HBSS+CaCl2+MgCl2 (Gibco Cat # 14025-092) and 25 mM HEPES pH 7.0 (Gibco Cat # 15630-080)). The cell concentration was adjusted to 6.25×10^5 cells/mL with assay medium and 8 μl of this cell suspension (5000 cells) was added to each well of a white Greiner 384-well, low-volume assay plate (VWR cat #82051-458).
Varying concentrations of each compound to be tested were diluted in assay buffer containing 3-isobutyl-1-methylxanthin (IBMX; Sigma cat #15879) and added to the assay plate wells in a volume of 2 microL (final IBMX concentration was 400 microM and final DMSO concentration was 0.58%). Following 30 minutes incubation at room temperature, 5 microL of labeled d2 cAMP and 5 microL of anti-cAMP antibody (both diluted 1:20 in cell lysis buffer; as described in the manufacturers assay protocol) were added to each well of the assay plate. The plates were then incubated at room temperature and after 60 minutes, changes in the HTRF signal were read with an Envision 2104 multilabel plate reader using excitation of 330 nm and emissions of 615 and 665 nm. Raw data were converted to nM cAMP by interpolation from a cAMP standard curve (as described in the manufacturer's assay protocol) and EC50 determinations were made from an agonist-response curves analyzed with a curve fitting program using a 4-parameter logistic dose response equation.

Test [3] concerns the target T1, human GPR119. The test is described as follows: β-Arrestin PathHunter assay (U2OS hGPR119 β-arrestin cells). As for the experimental part:
GPR119 agonist activity was also determined with a cell-based assay utilizing DiscoverX PathHunter β-arrestin cell assay technology and their U2OS hGPR119 β-arrestin cell line (DiscoverX Cat # 93-0356C3). In this assay, agonist activation is determined by measuring agonist-induced interaction of β-arrestin with activated GPR119. A small, 42 amino acid enzyme fragment, called ProLink was appended to the C-terminus of GPR119. Arrestin was fused to the larger enzyme fragment, termed EA (Enzyme Acceptor). Activation of GPR119 stimulates binding of arrestin and forces the complementation of the two enzyme fragments, resulting in formation of a functional β-galactosidase enzyme capable of hydrolyzing substrate and generating a chemiluminescent signal.
Specifically, U2OS hGPR119 β-arrestin cells (DiscoverX 1×10^7/mL) are removed from cryopreservation and diluted in growth medium (Minimum essential medium (MEM; Gibco Cat # 11095-080), 10% heat inactivated fetal bovine serum (HIFBS; Sigma Cat # F4135-100), […] sodium pyruvate (Sigma Cat # S8636), 500 microg/mL G418 (Sigma Cat # G8168) and 250 microg/mL Hygromycin B (Invitrogen Cat # 10687-010). The cell concentration was adjusted to 1.66×10^5 cells/mL and 30 mLs of this suspension was added to a T-175 flask and incubated at 37 degrees Celsius in a humidified environment in 5% carbon dioxide. After 24 hours, the cells were removed from the T-175 flask with enzyme-free cell dissociation buffer (Gibco cat #13151-014), centrifuged at 800×g and then re-suspended in plating medium (Opti-MEM I (Invitrogen/BRL Cat # 31985-070) and 2% charcoal dextran treated fetal bovine serum (CD serum; HyClone Cat # SH30068.03).
The cell concentration was adjusted to 2.5×10^5 cells/mL with plating medium and 20 microliters of this cell suspension (5000 cells) was added to each well of a white Greiner 384-well low volume assay plate (VWR cat #82051-458) and the plates were incubated at 37 degrees Celsius in a humidified environment in 5% carbon dioxide.
After 16 hours (overnight) the assay plates were removed from the incubator and varying concentrations of each compound to be tested (diluted in assay buffer (1×HBSS+CaCl2+MgCl2 (Gibco Cat # 14025-092), 20 mM HEPES pH 7.0 (Gibco Cat # 15630-080) and 0.1% BSA (Sigma Cat # A9576)) were added to the assay plate wells in a volume of 5 microliters (final DMSO concentration was 0.5%). After a 90 minute incubation at 37 degrees Celsius in a humidified environment in 5% carbon dioxide, 12 microliters of Galacton Star β-galactosidase substrate (PathHunter Detection Kit (DiscoveRx Cat # 93-0001); prepared as described in the manufacturers assay protocol) was added to each well of the assay plate. The plates were incubated at room temperature and after 60 minutes, changes in the luminescence were read with an Envision 2104 multilabel plate reader at 0.1 seconds per well. EC50 determinations were made from an agonist-response curves analyzed with a curve fitting program using a 4-parameter logistic dose response equation.

Setting [4] is: percent of maximal activity relative to standard GPR119 agonist at 10 micromolar.

Experimental findings from US20100285145A1, “GPR 119 MODULATORS” (PFIZER INC, priority 2009, published 2010) are described below.

“And” between values parts separate entries of the source, which are not always exact repeats. Equal entries are not always repeated.

One may read the EC50 as the concentration at which the effect is half-maximal. With `CC(C)OC(=O)N1C[C@H]2COC[C@@H](C1)[C@@H]2Oc1cc(N2CCc3cc(S(C)(=O)=O)ccc32)ncn1` [Example 2, Isopropyl 9-syn-({6-[5-(methylsulfonyl)-2,3-dihydro-1H-indol-1-yl]pyrimidin-4-yl}oxy)-3-oxa-7-azabicyclo[3.3.1]nonane-7-carboxylate], in test [1], the EC50 was 343 nM and 51.3 nM and 38.2 nM; the “Intrinsic Activity (Human B-lactamase)” value worked out at 106%; the Emax amounted to 98%.
As to `CN(C)C(=O)c1ccc2c(n1)CCN2c1cc(OC2CCN(C(=O)OC3(C)CC3)CC2)ncn1` [Example 33, 1-Methylcyclopropyl 4-({6-[5-(dimethylcarbamoyl)-2,3-dihydro-1H-pyrrolo[3,2-b]pyridin-1-yl]pyrimidin-4-yl}oxy)piperidine-1-carboxylate], the EC50 in test [2] came out at 1550 nM. In addition, the Emax in test [2] (setting [4]) turned out to be 154%.
As to `Cc1c(O[C@H]2CCN(C(=O)OC3(C)CC3)C[C@H]2F)ncnc1N1CCc2ncccc21` (racemic) [Example 19, 1-Methylcyclopropyl (3R,4S)-4-{[6-(2,3-dihydro-1H-pyrrolo[3,2-b]pyridin-1-yl)-5-methylpyrimidin-4-yl]oxy}-3-fluoropiperidine-1-carboxylate (racemic)], the EC50 in test [3] (U2OS hGPR119 β-arrestin cells, 90 min, each line a separate determination, read-out: Human B-arrestin Functional EC50) was 6.31 nM; in test [2], 19.4 nM. For the same molecule, the Emax in test [3] (U2OS, percent of maximal activity relative to standard GPR119 agonist at 10 micromolar, read-out: Intrinsic Activity (Human B-arrestin)) amounted to 74%; in test [2] (setting [4]), 57.9%.
For `CC(C)OC(=O)N1C[C@H]2COC[C@@H](C1)[C@H]2Oc1ncnc(N2CCc3cc(S(C)(=O)=O)ccc32)c1C#N` [Example 5], in test [1], the EC50 was 11.5 nM and 12.5 nM; the “Intrinsic Activity (Human B-lactamase)” value was 100%; the Emax turned out to be 98.1%. For the same molecule, the EC50 in test [2] was 357 nM and 602 nM and 1750 nM and 1330 nM and 1800 nM and 3140 nM.
Take `CC1(OC(=O)N2CC[C@H](Oc3cc(N4CCc5nc(C(N)=O)ccc54)ncn3)[C@H](F)C2)CC1` (racemic) [Example 32, 1-Methylcyclopropyl (3R,4S)-4-{[6-(5-carbamoyl-2,3-dihydro-1H-pyrrolo[3,2-b]pyridin-1-yl)pyrimidin-4-yl]oxy}-3-fluoropiperidine-1-carboxylate]: the midpoint of the response in test [2], the EC50, lay at 273 nM. In test [2] (setting [4]), the Emax worked out at 147%.
Turning to `CC(C)OC(=O)N1C[C@H]2COC[C@@H](C1)[C@@H]2Oc1ncnc(N2CCc3cc(S(C)(=O)=O)ccc32)c1C#N` [Example 4], in test [1], the EC50 turned out to be 9.16 nM and the Emax came out at 87.9%. Moreover, in test [2] (setting [4]), the “Intrinsic Activity (Human cAMP)” value was 36% and 35.3%; the Emax came out at 36.2%.
As to `Cc1c(O[C@H]2[C@@H]3COC[C@H]2CN(C(=O)OC(C)C)C3)ncnc1N1CCc2cc(S(C)(=O)=O)ccc21` [Example 24, Isopropyl (9-anti)-9-({5-methyl-6-[5-(methylsulfonyl)-2,3-d hydro-1H-indol-1-yl]pyrimidin-4-yl}oxy)-3-oxa-7-azabicyclo[3.3.1]nonane-7-carboxylate], in test [1], the EC50 was determined as 111 nM and the Emax amounted to 100%.
As to `CC(C)OC(=O)N1CCC(Oc2cc(N3CCc4cc(S(C)(=O)=O)cnc43)ncn2)CC1` [Example 14, Isopropyl 4-({6-[5-(methylsulfonyl)-2,3-dihydro-1H-pyrrolo[2,3-b]pyridin-1-yl]pyrimidin-4-yl}oxy)piperidine-1-carboxylate], the EC50 in test [1] was 7270 nM; in test [2], over 10000 nM. Further, the Emax in test [1] turned out to be 98.1%.
